Four compounds from ChEMBL document CHEMBL1135856, “Identification of unique VLA-4 antagonists from a combinatorial library” (Bioorg Med Chem Lett, 2002) can be followed below.

Sequence of Integrin alpha-4/beta-1 (P05556 whole entry): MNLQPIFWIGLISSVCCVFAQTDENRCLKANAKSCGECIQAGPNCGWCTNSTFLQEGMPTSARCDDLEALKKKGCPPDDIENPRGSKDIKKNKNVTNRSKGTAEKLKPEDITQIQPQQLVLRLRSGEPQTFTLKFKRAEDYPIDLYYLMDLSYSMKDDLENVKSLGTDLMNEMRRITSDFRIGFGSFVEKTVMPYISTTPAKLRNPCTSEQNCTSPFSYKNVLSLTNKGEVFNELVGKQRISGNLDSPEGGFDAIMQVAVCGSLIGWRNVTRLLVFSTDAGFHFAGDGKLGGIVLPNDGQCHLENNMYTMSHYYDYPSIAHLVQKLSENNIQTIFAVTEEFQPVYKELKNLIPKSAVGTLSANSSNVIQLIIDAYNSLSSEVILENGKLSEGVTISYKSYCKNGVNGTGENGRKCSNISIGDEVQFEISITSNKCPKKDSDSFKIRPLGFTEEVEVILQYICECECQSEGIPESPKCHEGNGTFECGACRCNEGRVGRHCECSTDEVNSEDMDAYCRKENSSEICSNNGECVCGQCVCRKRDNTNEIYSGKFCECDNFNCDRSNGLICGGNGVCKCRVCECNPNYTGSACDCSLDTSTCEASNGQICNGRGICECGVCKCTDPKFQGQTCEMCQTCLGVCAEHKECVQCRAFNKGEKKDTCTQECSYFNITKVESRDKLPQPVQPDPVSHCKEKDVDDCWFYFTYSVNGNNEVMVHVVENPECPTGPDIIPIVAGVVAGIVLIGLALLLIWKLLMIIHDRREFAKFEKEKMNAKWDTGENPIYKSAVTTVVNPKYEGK
Sequence of Integrin alpha-4/beta-1 (P13612 whole entry): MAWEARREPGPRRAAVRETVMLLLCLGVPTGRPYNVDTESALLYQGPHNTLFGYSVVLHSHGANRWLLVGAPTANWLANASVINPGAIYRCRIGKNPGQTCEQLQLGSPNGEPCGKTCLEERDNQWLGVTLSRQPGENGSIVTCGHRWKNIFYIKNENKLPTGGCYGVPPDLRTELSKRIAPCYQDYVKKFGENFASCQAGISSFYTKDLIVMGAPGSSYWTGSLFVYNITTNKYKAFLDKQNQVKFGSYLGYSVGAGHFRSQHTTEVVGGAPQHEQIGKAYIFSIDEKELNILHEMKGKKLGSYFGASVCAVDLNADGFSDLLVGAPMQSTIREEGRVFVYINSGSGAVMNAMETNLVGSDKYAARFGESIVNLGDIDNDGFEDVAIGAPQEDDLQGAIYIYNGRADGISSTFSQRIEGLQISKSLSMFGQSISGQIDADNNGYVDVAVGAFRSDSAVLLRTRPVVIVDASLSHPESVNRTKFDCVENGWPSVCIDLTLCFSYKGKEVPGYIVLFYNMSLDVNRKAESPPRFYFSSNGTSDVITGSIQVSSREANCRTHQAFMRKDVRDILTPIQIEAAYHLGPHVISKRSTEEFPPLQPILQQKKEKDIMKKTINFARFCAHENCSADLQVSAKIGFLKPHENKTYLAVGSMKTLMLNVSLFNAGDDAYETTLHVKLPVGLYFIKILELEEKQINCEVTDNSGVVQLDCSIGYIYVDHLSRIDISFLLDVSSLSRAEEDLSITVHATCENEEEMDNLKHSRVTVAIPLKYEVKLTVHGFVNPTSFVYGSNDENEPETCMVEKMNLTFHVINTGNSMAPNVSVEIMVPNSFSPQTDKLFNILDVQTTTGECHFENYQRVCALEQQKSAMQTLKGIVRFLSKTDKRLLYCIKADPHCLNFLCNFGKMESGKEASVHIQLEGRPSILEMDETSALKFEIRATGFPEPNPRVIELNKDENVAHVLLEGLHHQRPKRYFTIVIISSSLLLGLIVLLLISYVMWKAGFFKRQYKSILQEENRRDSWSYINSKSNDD

This assay concerns the target Integrin alpha-4/beta-1 (Homo sapiens, UniProt P05556+P13612). Put plainly: Inhibition of [125I]VCAM-Ig binding to Alpha-4 beta-1 (VLA-4) of Jurkat cells. The format is cell-based.
As to `Cc1ccccc1NC(=O)Nc1ccc(CC(=O)N(CC(=O)NC(CC(=O)O)c2ccccc2)C2CCCCC2)cc1` (centres undefined), the half-inhibitory concentration (IC50) is 3.2 nM.
The compound `O=C(N[C@@H](Cc1ccc(-c2ccccc2)cc1)C(=O)O)c1ccc(CNS(=O)(=O)c2cc(Cl)cc(Cl)c2)cc1` came in with an IC50 of 3.6 nM.
The same measure for `Cc1ccccc1NC(=O)Nc1ccc(CC(=O)C2CCC(C(=O)N[C@@H](Cc3ccccc3)C(=O)O)(c3ccccc3)CC2)cc1` (some centres undefined): 8.1 nM; for `CCCC[C@H](NC(=O)[C@@H]1Cc2ccccc2CN1S(=O)(=O)c1ccc(OC)c(OC)c1)C(=O)O`: 0.53 nM.

One may read the IC50 as the concentration needed to halve the response being measured.
